Earlier results as cited in US10188628B1, “Release composition for derivatives of Cannabaceae” (priority 2016, dated 2019).

Legend:
[1] = after oral administration
[2] = not given; remark: listed apart in the source

CCCCCc1cc(O)c2c(c1)OC(C)(C)[C@@H]1CCC(C)=C[C@@H]21 [Dronabinol, Δ^9-tetrahydrocannabinol]
absorbed (after a single oral dose): 90-95% | maximal plasma levels (oral dosing of 20 mg in a sesame oil formulation): around 10 ng/ml | administered dose reaching systemic circulation (oral, first pass hepatic metabolism and high lipid solubility): 10-20% | appetite stimulant effect may continue [1]: ≥ 24 h | duration of action for psychoactive effects [1]: 4 to 6 h | onset of action [1]: 0.5 to 1 h | peak effect [1]: 2 to 4 h | stability to storage and stress conditions ([2]; heat, light): thermolabile and photolabile | biopharmaceutical classification system (BCS) class ([2]; low aqueous solubility and high permeability): Class II
